Each block holds one molecule with its values, some of them ahead of it.
What was measured:
[1] = tested on: human melanoma cells (SkMel28); experiment: Clonogenicity assays (two- and three-dimensional colony formation), human melanoma cells; assay type: cell-based; details: human (metastatic) melanoma cells
Excerpt: (§1) • Figure 1 A-B. Boyden chamber analysis and representative images (10-fold original magnification) of chemotaxis of human melanoma cells (SkMel28) towards recombinant NPY (lower chamber) with or without application of Y5R specific inhibitor CGP71683 (Y5Ri) (upper chamber) compared to migration towards serum free medium (n = 9). Arrowheads indicate migrated cells. • Figure 2. Representative images of colony number and colony size of human melanoma cells (SkMel28) in clonogenicity assays with application of increasing concentrations of Y5R inhibitor (Y5Ri) (n = 3). • Figure 3. Schematic illustration of the experimental procedure: splenic injection of murine melanoma cells (B16) in C57BL/6 mice on day 0; intraperitoneal injection of Y5R inhibitor CGP71683 (Y5Ri) (15 mg/kg body weight per injection) or solvent only (DMSO) as control on indicated days; end of experiment eight days after cell implantation. • Figure 4. Explanted metastases bearing spleens and livers of DMSO (control) and Y5Ri treated mice after splenic injection of B16 melanoma cells. • Figure 5. Macroscopic classification of livers from DMSO (n = 11) and Y5Ri treated mice (n = 9) into very low / low versus moderate / high liver metastasis. • Figure 6. A. CHK2 level in NPY^-/- mice compared to control WT mice measured by IHC analysis. B. CHK2 level in Y5Ri-treated mice compared to control DMSO-treated mice measured by IHC analysis. • Figure 7. […] A. Quantification of NPY mRNA expression levels in liver tissues from mice treated with control LNPs ("Control", LNPs bearing control siRNA pool, n = 11) and from mice treated with LNPs bearing siRNA pool targeting murine NPY ("LNP-siNPY", n = 11). B. Quantification of NPY protein levels in liver tissues from mice treated with control LNPs (n = 11) and LNP-siNPY treated mice (n = 11). • Figure 9 A-B. ELISA based protein expression analysis of absolute NPY levels in liver tissues and serum samples from LNP-siNPY treated mice (n = 10) compared to mice treated with control LNPs (LNPs bearing control siRNA pool, n = 11) after splenic melanoma cell injection. • Figure 10. […] A. Quantification of number of metastases in liver tissues from LNP-siNPY treated mice (n = 10) compared to mice treated with control LNPs (LNPs bearing control siRNA pool, n = 11). B. Quantification of metastases size in liver tissues from LNP-siNPY treated mice (n = 10) compared to mice treated with control LNPs (LNPs bearing control siRNA pool, n = 11). • Figure 13. […] A. Quantification of pERK protein expression in metastatic liver tissue samples of LNP-siNPY treated mice (n = 6) compared to mice treated with control LNPs (LNPs bearing control siRNA pool, n = 6). […]

[2] = tested on: human melanoma cells (SkMel28); experiment: Boyden chamber chemotactic migration, human melanoma cells; assay type: cell-based; details: for NPY-induced chemotactic migration: melanoma cells, migration towards recombinant NPY, co-treatment with the substance
Excerpt: as §1

[3] = tested on: CRC, PC and BC cell lines; experiment: Clonogenicity assays, CRC, PC and BC cell lines; assay type: cell-based
Excerpt: (§2) Normal human epidermal melanocytes (NHEM), the human primary melanoma cell lines Mel Juso, Mel Ei, Mel Wei and metastatic human melanoma cell lines SkMel28 (ATCC CRL-1469™), Mel Im, Mel Ju, SkMel3 (ATCC HTB-69™) were described previously (Jacob et al., 1998; Heimerl et al., 2007). Primary human hepatocytes (PHH) were isolated and cultured as described elsewhere (Dietrich et al., 2017; Lee et al., 2013). In addition, the human breast cancer cell line MCF-7 (ATCC HTB-22™), the human pancreatic cancer cell line Panc-1 (ATCC CRL-1469™) and the human colon cancer cell lines HT29 (ATCC HTB-38™), Caco-2 (ATCC HTB-37™) and LoVo (ATCC CCL-229™) were used. The murine melanoma cell line B16 (ATCC CRL-6475™) was used for in vitro and in vivo studies. Furthermore, the murine pancreatic cancer cell line KPC and the murine colon cancer cell lines MC38 and CT26 (ATCC CRL-2638™) were used. Table 4. Summary and additional information of human and murine cell lines. BC: Breast cancer. CRC: Colorectal cancer. Hetero: Heterozygous genotype. Homo: Homozygous genotype. MET: Metastatic melanoma cell line. MM: Malignant melanoma. Nd: not determined / missing. PC: Pancreatic cancer. PT: Primary tumor melanoma cell line. Peri-tumor: Tumor-surrounding liver tissue. IR: immunoreactivity (score).
As described previously (Dietrich et al., 2017), clonogenic assays were performed to analyze stem cell behavior, attachment dependent colony formation and growth of cancer cells.
Anchorage independent colony formation and growth of cancer cells were analyzed using soft agar colony formation assays as described previously (Borowicz et al., 2014). Treatment with specific agonists and antagonists started 24 h after tumor cell seeding. Treatment was repeated after five and nine days. Microscopic analysis of the obtained colonies was conducted 14 days after tumor cell seeding.

[4] = tested on: CRC, PC and BC cell lines; experiment: Boyden chamber NPY-mediated chemotactic migration, CRC, PC and BC cell lines; assay type: cell-based
Excerpt: as §2
As described previously (Dietrich et al., 2017), Boyden chamber assays were used in order to analyze cell migration. Boyden chamber filters were additionally coated with Matrigel to analyze cell invasion.

pCHK2 = pCHK2 levels in melanoma cells in vitro; assay type: cell-based; details: (metastatic) melanoma cells in vitro
Procedure: As described in detail in previous studies (Dietrich et al., 2017), Western blots and densitometric quantification were performed using the following primary antibodies: anti-β-actin antibody (catalog no. A1978, Sigma-Aldrich; 1 in 5,000 dilution), anti-phospho-ERK antibody (catalog no. #9101, Cell Signaling, Frankfurt am Main, Germany; 1 in 4,000 dilution), anti-ERK antibody (catalog no. #9102, Cell Signaling; 1 in 1,000 dilution), anti-phospho-AKT antibody (catalog no. #9271, Cell Signaling, Frankfurt am Main, Germany; 1 in 2000 dilution), anti-AKT (catalog no. #9272, Cell Signaling, Frankfurt am Main, Germany; 1 in 2000 dilution), anti-Y5R antibody (catalog no. ab133757, Abcam; 1 in 30,000 dilution), anti-phospho-Chk2 antibody (catalog no. #2661, Cell Signaling, Frankfurt am Main, Germany; 1 in 1000 dilution), anti-phospho-p53 antibody (catalog no. #9284, Cell Signaling, Frankfurt am Main, Germany; 1 in 1000 dilution).

[5] = tested on: B16 melanoma cells (liver metastasis); experiment: Spleen-liver metastasis model with Y5R inhibitor treatment; assay type: in vivo, C57BL/6 mice
Excerpt: • Figure 1 A-B. Boyden chamber analysis and representative images (10-fold original magnification) of chemotaxis of human melanoma cells (SkMel28) towards recombinant NPY (lower chamber) with or without application of Y5R specific inhibitor CGP71683 (Y5Ri) (upper chamber) compared to migration towards serum free medium (n = 9). Arrowheads indicate migrated cells. • Figure 2. Representative images of colony number and colony size of human melanoma cells (SkMel28) in clonogenicity assays with application of increasing concentrations of Y5R inhibitor (Y5Ri) (n = 3). • Figure 3. Schematic illustration of the experimental procedure: splenic injection of murine melanoma cells (B16) in C57BL/6 mice on day 0; intraperitoneal injection of Y5R inhibitor CGP71683 (Y5Ri) (15 mg/kg body weight per injection) or solvent only (DMSO) as control on indicated days; end of experiment eight days after cell implantation. • Figure 4. Explanted metastases bearing spleens and livers of DMSO (control) and Y5Ri treated mice after splenic injection of B16 melanoma cells. • Figure 5. Macroscopic classification of livers from DMSO (n = 11) and Y5Ri treated mice (n = 9) into very low / low versus moderate / high liver metastasis. • Figure 6. A. CHK2 level in NPY^-/- mice compared to control WT mice measured by IHC analysis. B. CHK2 level in Y5Ri-treated mice compared to control DMSO-treated mice measured by IHC analysis. • Figure 7. Schematic illustration of the experimental procedure: pre-treatment of C57BL/6 mice with lipid nanoparticles (LNP) bearing control siRNA pool or siNPY pool (pool of siRNAs targeting murine NPY) one day before surgery (day -1); splenic injection of murine melanoma cells (B16) on day 0; intraperitoneal injection of LNPs with control siRNA pool or siNPY pool as indicated; end of experiment six days after cell implantation. • Figure 8. A. Quantification of NPY mRNA expression levels in liver tissues from mice treated with control LNPs ("Control", LNPs bearing control siRNA pool, n = 11) and from mice treated with LNPs bearing siRNA pool targeting murine NPY ("LNP-siNPY", n = 11). B. Quantification of NPY protein levels in liver tissues from mice treated with control LNPs (n = 11) and LNP-siNPY treated mice (n = 11). • Figure 9 A-B. ELISA based protein expression analysis of absolute NPY levels in liver tissues and serum samples from LNP-siNPY treated mice (n = 10) compared to mice treated with control LNPs (LNPs bearing control siRNA pool, n = 11) after splenic melanoma cell injection. • Figure 10. […] A. Quantification of number of metastases in liver tissues from LNP-siNPY treated mice (n = 10) compared to mice treated with control LNPs (LNPs bearing control siRNA pool, n = 11). B. Quantification of metastases size in liver tissues from LNP-siNPY treated mice (n = 10) compared to mice treated with control LNPs (LNPs bearing control siRNA pool, n = 11). • Figure 13. […] A. Quantification of pERK protein expression in metastatic liver tissue samples of LNP-siNPY treated mice (n = 6) compared to mice treated with control LNPs (LNPs bearing control siRNA pool, n = 6). B. Quantification of pCHK2 protein expression in metastatic liver tissue samples of LNP-siNPY treated mice (n = 6) compared to samples from control treatment (control siPool bearing LNPs) (n = 6). • Figure 15. […]

metastatic CRC organoids = experiment: Ki67 expression in metastatic CRC organoids; assay type: cell-based, murine; details: vs controls
Procedure: Murine APTAK organoids were used for in vitro and in vivo experiments. These APTAK tumor organoids are deficient in Apc, Tp53, Tgfbr2 and express constitutively activated Kras and activated Akt1. Organoids were generated and CRC models were conducted in a similar way as previously described (Heichler et al., 2020). In an orthotopic mouse model for CRC and CRC (liver) metastasis, single cell suspensions from genetically engineered APTAK organoids were injected into the submucosa of wildtype mice.
Immunohistochemistry (IHC) and immunofluorescence analyses were performed using tissue microarrays consisting of human cancer tissue samples and mouse paraffin-embedded tissue sections as described previously (Dietrich et al., 2017; Dietrich et al., 2020). […] For each antibody, immunohistochemistry staining was evaluated semi-quantitatively and scores were calculated as described previously (Dietrich et al., 2017; Dietrich et al., 2020).

Structure (SMILES): CC(=O)O[C@H]1[C@H]2O[C@]23[C@@H]2CC[C@@H]4C[C@@H](O)CC[C@]4(C)[C@H]2CC[C@]3(C)[C@H]1c1ccc(=O)oc1 [Cinobufagin]
clonogenicity [1]: strongly reduced clonogenicity

Structure (SMILES): NC(=O)NCc1ccc(CNC(=O)[C@@H](CCCN=C(N)N)NC(=O)C(c2ccccc2)c2ccccc2)cc1 [Y1Ri]
NPY-induced chemotactic migration [2]: not altered
clonogenicity ([3]; CRC cells): did not affect
clonogenicity ([3]; PC and BC cell lines): did not affect clonogenicity
NPY-mediated chemotactic migration ([4]; CRC cells): did not affect
NPY-mediated chemotactic migration ([4]; PC and BC cell lines): sufficient to reduce NPY-mediated chemotactic migration
clonogenicity [1]: not affected

Structure (SMILES): N=C(N)NCCC[C@H](NC(=O)CC1(CC(=O)N2CCN(C3c4ccccc4NC(=O)c4ccccc43)CC2)CCCC1)C(=O)NCCn1c(=O)n(-c2ccccc2)n(-c2ccccc2)c1=O (stereo partly drawn) [Y2Ri]
NPY-induced chemotactic migration [2]: not altered
clonogenicity ([3]; CRC cells): did not affect
clonogenicity ([3]; PC and BC cell lines): did not affect clonogenicity
NPY-mediated chemotactic migration ([4]; CRC cells): did not affect
NPY-mediated chemotactic migration ([4]; PC and BC cell lines): not affected
clonogenicity [1]: not affected

chemotactic migration induced by hepatocyte-derived, NPY-containing supernatants or by liver lysates from wildtype mice ([2]; concomitant Y5R-inhibition): significantly reduced
liver transaminases ([5]; mice, 15 mg/kg i.p. every 24 h): did not affect
Structure (SMILES): Nc1nc(NC[C@H]2CC[C@H](CNS(=O)(=O)c3cccc4ccccc34)CC2)nc2ccccc12 [Y5Ri, N-[[trans-4-[[(4-amino-2-quinazolinyl)amino]methyl]cyclohexyl]methyl]-1-naphthalenesulfonamide]
NPY-induced chemotactic migration [2]: antagonized NPY-induced chemotactic migration
clonogenicity ([3]; CRC, PC and BC cell lines): confirmed
pCHK2 levels (pCHK2): induced pCHK2
cleaved caspase 3 expression in liver metastatic cells ([5]; mice, IHC): only slightly, however not significantly, enhanced
liver metastasis ([5]; splenic injection of B16 cells, 15 mg/kg i.p. every 24 h, vs vehicle control): significantly reduced liver metastasis
pCHK2 in liver metastasis ([5]; treated mice vs controls, IHC (Figure 6B)): significant induction
Ki67 expression in liver metastasis ([5]; treated vs control-treated mice, IHC): significantly reduced
clonogenicity [1]: strongly reduced clonogenicity
Ki67 expression (metastatic CRC organoids): significantly reduced Ki67 expression

From patent publication EP4595966A1, “USE OF NPY/Y5R INHIBITOR IN TREATING LIVER METASTASIS” (Friedrich-Alexander-Universität Erlangen-Nürnberg, priority 2024, dated 2025)
